Measured values as given in patent publication US7115655B2, “Pyranocoumarin derivatives” (Elcom Biotechnology, Co. Ltd., priority 2002, dated 2006).
Where two headings read alike, the source gives them in different places.

Experiments:
[1] = test system: mice with scopolamine-induced amnesia; assay: Passive avoidance test in mice with scopolamine-induced amnesia; format: in vivo, Male ICR mice; details: for cognition-enhancing activity in passive avoidance test, in words: mice with scopolamine-induced amnesia
Excerpt: Male ICR mice weighing 25 to 30 g that had been bred with sufficient water and feed in the Experimental Animal Breeding Center of Seoul National University were supplied and adapted to the laboratory environment for 1 week to be used in this experiment.
An avoidance box (40×20×20 cm) equipped with 3 mm stainless steel rod spaced 0.5 cm apart at the bottom was divided into a light compartment and a dark compartment, and when mice placed in the light compartment entered the dark compartment, an electrical shock (0.1 mA/10 g body weight) was delivered through the stainless steel rods. The above procedure was repeated after 24 hours, and the time for which the mice stayed at the light compartment was measured and used as an index of memorizing the training of the previous day. Passive avoidance test was performed according to the method of Christensen et al. (Cholinergic ‘Blockade’ as a model of the cognitive deficits in Alzheimer's disease, Brain 115: 1681–1699, 1992). Specifically, scopolamine was dissolved in physiological saline to 1.5 mg/kg solution, and the solution was subcutaneously injected to mice 30 minutes before the training to induce amnesia. The Angelica gigas extract was intraperitoneally injected to the mice 1 hour before the scopolamine administration, and observed for its effect on the scopolamine-induced amnesia.
Passive avoidance test was performed according to the method of the above Experiment 1(2) to measure effects of pyranocoumarin derivatives of the present invention. Velnacrine (AChE inhibitor) was used as a positive control.

[2] = molecular target: T1, AChE (Electric eel Type V-S, Sigma) (Electrophorus electricus, UniProt O42275); assay: biochemical; format: biochemical
T1 construct: purchased Sigma Type V-S
Description: AChE inhibitory activity of the methanolic extract and CH2Cl2 fraction of Angelica gigas of the above Example 1 was measured by the method of Ellman et al. (Ellman, et al. (1961) A new and rapid colorimetric determination of acetylcholinesterase activity, Biochem. Pharmacol. 7: 88–95).
(§1) To a test tube containing a chromogen (5,5-dithiobis-2-nitrobenzoic acid) and a sample was added AChE homogenated with phosphate buffered saline (Electric eel Type V-S, Sigma), and a reaction was performed at 37° C. for 5 minutes, and thereto was added a substrate for the enzyme, […], and a reaction was further performed at 37° C. for 3 minutes. Neostigmine bromide was added thereto to terminate the reaction, and then, the absorbance was measured at 412 nm to obtain AChE inhibition (%). The above procedure was repeated with no AChE as a blank, or with no sample as a control.
AChE inhibitory activity of decursin of the above Example 2 and Compound 3 of the above Example 3 was measured according to the method in Experiment 1.
as §1, with “minutes. The above procedure was repeated with no AChE as a blank or with no sample as a control.” for “minutes.”, “obtain IC50 of” for “obtain”, “inhibition.” for “inhibition (%). The above procedure was repeated with no AChE as a blank, or with no sample as a control.”

[3] = Table 4, 1 mg/kg + scopolamine 1.5 mg/kg, Mean ± S.D.
[4] = read-out: IC50 of AChE inhibition
[5] = Table 4, 5 mg/kg + scopolamine 1.5 mg/kg, Mean ± S.D.

T1 sequence (O42275 24-633): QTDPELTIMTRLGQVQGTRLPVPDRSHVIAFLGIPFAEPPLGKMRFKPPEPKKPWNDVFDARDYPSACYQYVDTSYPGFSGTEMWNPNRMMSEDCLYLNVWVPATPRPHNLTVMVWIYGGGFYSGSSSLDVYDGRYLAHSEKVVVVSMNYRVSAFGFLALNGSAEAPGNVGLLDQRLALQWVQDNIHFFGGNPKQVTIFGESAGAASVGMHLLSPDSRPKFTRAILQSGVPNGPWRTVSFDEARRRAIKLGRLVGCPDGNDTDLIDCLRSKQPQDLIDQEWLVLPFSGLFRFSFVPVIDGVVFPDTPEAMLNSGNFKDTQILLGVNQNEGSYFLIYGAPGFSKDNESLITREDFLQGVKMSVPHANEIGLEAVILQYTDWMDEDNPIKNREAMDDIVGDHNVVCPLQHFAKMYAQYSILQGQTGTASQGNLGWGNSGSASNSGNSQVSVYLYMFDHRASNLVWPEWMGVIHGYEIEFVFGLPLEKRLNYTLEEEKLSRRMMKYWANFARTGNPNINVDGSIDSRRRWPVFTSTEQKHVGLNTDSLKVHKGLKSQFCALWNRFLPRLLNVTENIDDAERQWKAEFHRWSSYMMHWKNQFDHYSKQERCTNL

Structure (SMILES) | Step-through latency [1, 3] [s] | cognition-enhancing activity in passive avoidance test, in words [1] | AChE inhibitory activity, comparison in words [2] | IC50 [2, 4] [µM] | Step-through latency [1, 5] [s] | other results
Nc1c2c(nc3ccccc13)CCCC2O (stereo not drawn) [velnacrine, Velnacrine, reference compound] | 73.4 ± 6.4 |  |  |  |  | 
CN1[C@@H]2C[C@@H](OC(=O)[C@H](CO)c3ccccc3)C[C@H]1[C@@H]1O[C@@H]12 [Scopolamine, scopolamine, reference compound] |  |  |  |  |  | Step-through latency ([1]; Table 2, scopolamine alone 1.5 mg/kg s.c. (amnesia induction), saline 158.8 ± 27.6): 29.7 ± 3.1 s; Step-through latency ([1]; Table 4, scopolamine alone 1.5 mg/kg s.c. (amnesia induction), saline 172.0 ± 16.0): 29.7 ± 2.8 s; Step-through latency ([1]; Table 5, scopolamine alone 1.5 mg/kg s.c. (amnesia induction), saline 179.7 ± 0.6): 28.4 ± 10.1 s
COc1ccc(/C=C/C(=O)OC2Cc3cc4ccc(=O)oc4cc3OC2(C)C)cc1 (stereo not drawn) [Compound 3] |  | excellent cognition-enhancing activity | better AChE inhibitory activity than decursinol | 51 |  | Step-through latency ([1]; Table 5, 1 mg/kg + scopolamine 1.5 mg/kg, Mean ± S.D.): 42.0 ± 17.9 s; Step-through latency ([1]; Table 5, 2 mg/kg + scopolamine 1.5 mg/kg, Mean ± S.D.): 86.0 ± 18.2 s; Step-through latency ([1]; Table 5, 5 mg/kg + scopolamine 1.5 mg/kg, Mean ± S.D.): 171.2 ± 18.7 s
CC1(C)Oc2cc3oc(=O)ccc3cc2C[C@@H]1O [Compound 2, decursinol, reference compound] | 52.1 ± 8.8 | did not show such activity |  | 28 | 54.4 ± 10.6 | Step-through latency ([1]; Table 4, 10 mg/kg + scopolamine 1.5 mg/kg, Mean ± S.D.): 43.2 ± 7.7 s
CC(C)=CC(=O)O[C@H]1Cc2cc3ccc(=O)oc3cc2OC1(C)C [Compound 1, decursin] | 108.6 ± 15.0 | excellent cognition-enhancing activity | better AChE inhibitory activity than decursinol |  | 96.5 ± 18.2 | Step-through latency ([1]; Table 4, 0.5 mg/kg + scopolamine 1.5 mg/kg, Mean ± S.D.): 32.1 ± 13.4 s; IC50 [2]: 480 µM
